Data: US20020006958A1, “Substituted aminosalicylic acid amides with fungicidal effect and intermediate products for production thereof” (priority 1997, published 2002)

experiment: HPLC logP determination; format: physicochemical; conditions: stated in the preparation examples

SMILES | chromatographic logP
O=C(Nc1ccc(Oc2ncnc(Oc3ccccc3)c2F)cc1)c1cccc([N+](=O)[O-])c1OCc1ccccc1 [Example V-1, 2-benzyloxy-N-[4-(5-fluoro-6-phenoxy-pyrimidin-4-yloxy)-phenyl]-3-nitro-benzamide] | 4.56
O=CNc1cccc(C(=O)Nc2ccc(Oc3ncnc(Oc4ccccc4)c3F)cc2)c1O [Example 1, N-[4-(5-fluoro-6-phenoxy-pyrimidin-4-yloxy)-phenyl]-3-formyl-amino-2-hydroxy-benzamide] | 3.31
Nc1ccc(Oc2cc(Oc3ccccc3Cl)ncn2)cc1 [VII-a-1, 4-(4-aminophenoxy)-6-(2-chlorophenoxy)-pyrimidine] | 1.96
Nc1ccc(Oc2cc(Cl)ncn2)cc1 [XI-1, 4-(4-aminophenoxy)-6-chloro-pyrimidine] | 0.65
